Measurements taken from PMC8284473, “Preliminary Characterization of NP339, a Novel Polyarginine Peptide with Broad Antifungal Activity” (Antimicrobial Agents and Chemotherapy, 2021).
In brackets after ≈: the same amount, converted by molar mass. Peptide text beside a SMILES is read from it.

Columns and labels:
A. fumigatus conidia = test: Time-kill assay in culture media; format: cell-based, Aspergillus fumigatus; details: A. fumigatus conidia (n = 2), inoculum 1 × 10^5 cells/ml, antibiotic medium 3
Procedure: (§1) For Candida spp., the cells were grown for at least 18 to 24 h at 30°C, until visible growth was observed. The cells were then centrifuged and resuspended in sterile distilled H2O and diluted to the 0.5 McFarland standard density using 2× RPMI 1640 medium. The tested antifungals were prepared at twice the required concentration. Then, 1 ml of the inoculum was added to 1 ml of the antifungal solution and incubated at 30°C. Every hour over the course of 8 h, 20 μl of the culture was removed and 10-fold serial dilutions were prepared (from 1 × 10^−1 to 1 × 10^−7). Then, 50 μl of each dilution was plated on SAB agar (Sigma) in triplicate. The plates were incubated at 30°C until colonies were observed on the control plates with vehicle-treated fungi. The colonies were counted, and the percentage killed was determined based on the reduction in the number of CFU/ml in the treated samples compared with the vehicle-treated, untreated controls.
For A. fumigatus, a subculture was grown on a SAB agar (Sigma) slant for 72 h at 35°C until sporulation. A. fumigatus cells were harvested from the slant into 0.15 M NaCl (Fisher Scientific UK, Ltd.), and conidia were isolated by passing through an EASYStrainer cell sieve (70-μm pore; Greiner Bio-One, Gloucester, United Kingdom) The conidial suspension was diluted to 1 × 10^5 CFU/ml in 2× antibiotic medium 3 (Oxoid). For germling analysis, the conidial suspension was incubated for 8 h at 35°C prior to analysis; for conidial experiments, it was used immediately. The experiment was performed as described for Candida spp.

C. auris = test: Time-kill assay in culture media; format: cell-based, Candida auris; details: C. auris (n = 1), inoculum 1 × 10^6 to 5 × 10^6 cells/ml
Procedure: as §1, with “The plates were incubated at 30°C until colonies were observed on the control plates with vehicle-treated fungi.” left out

[1] = tested on: C. tropicalis AM2005/0568; format: cell-based, Candida tropicalis; details: 30 passages in 0.25× MIC of the same antifungal, passage 0 = 1, average of three independent replicates
Procedure: (§2) Cell growth of all fungi was followed by measuring the optical density at 530 nm (OD530) using the Powerwave XS plate reader (Biotek, Swindon, United Kingdom).
(§3) The fungal inoculum was prepared according to the CLSI standard M27-A3 ([32]). For the analysis, 100 μl of the antifungal stock was added to a 96-well polystyrene plate in triplicate. […] The passaging was repeated 30 times. Every five passages, a full MIC analysis was done, as specified above.

C. albicans SC5314 = format: cell-based, Candida albicans; details: 30 passages in 0.25× MIC of the same antifungal, MIC at passage 0 normalized to 1, average of three independent replicates
Procedure: as §2, §3

C. glabrata AM2007/0125 = format: cell-based, Candida glabrata; details: 30 passages in 0.25× MIC of the same antifungal, passage 0 = 1, average of three independent replicates
Procedure: as §2, §3

C. auris DSMZ1092 = format: cell-based, Candida auris; details: 30 passages in 0.25× MIC of the same antifungal, passage 0 = 1, average of three independent replicates
Procedure: as §2, §3

C. albicans NCTC 3179 = format: cell-based, Candida albicans; details: NCTC 3179, 24 h
Procedure: MIC values were determined following the CLSI-approved Reference Method for Broth Dilution Antifungal Susceptibility Testing of Yeasts (approved standard M27-A3) ([32]) in RPMI 1640 medium (Sigma, Dorset, United Kingdom) at 35°C. For all filamentous fungi, the CLSI standard M38-A2 ([33]) was followed, in RPMI 1640 medium at 35°C. Cell growth of all fungi was followed by measuring the optical density at 530 nm (OD530) using the Powerwave XS plate reader (Biotek, Swindon, United Kingdom).

C. albicans AM2003-0182 [2] = test: MIC (CLSI) of the agents used for TEM; format: cell-based, Candida albicans; details: standard CLSI methods
C. albicans AM2003-0182 [3] = test: Transmission electron microscopy of planktonic cells; format: cell-based, Candida albicans; details: 1× MIC, 30 min exposure
Procedure: For the TEM analysis, an overnight culture of C. albicans AM2003-0182 was diluted to a density of 1 × 10^8 cells/ml in 2× RPMI 1640 medium, and the mixture was incubated at 35°C for 1 h. The cells were then washed three times in sterile water and once in 0.01 M sodium phosphate buffer. […] The cells were then fixed in 2.5% (vol/vol) glutaraldehyde and stored at 4°C before analysis. For TEM analysis, the cells were dehydrated in an ethanol and acetone series before being embedded in […] resin, stained with uranyl acetate/lead citrate stains to improve contrast, sectioned to a 90-nm thickness, and mounted onto copper grids for TEM analysis. TEM micrographs were acquired using a JEM-1400 Plus JEOL transmission electron microscope. Microscopy was performed in the Microscopy and Histology Core Facility at the University of Aberdeen (United Kingdom).

C. albicans = test: Time-kill assay in culture media; format: cell-based, Candida albicans; details: C. albicans (n = 2), inoculum 1 × 10^6 to 5 × 10^6 cells/ml, RPMI 1640, 30°C
Procedure: The tested antifungals were prepared at twice the required concentration. Then, 1 ml of the inoculum was added to 1 ml of the antifungal solution and incubated at 30°C. Every hour over the course of 8 h, 20 μl of the culture was removed and 10-fold serial dilutions were prepared (from 1 × 10^−1 to 1 × 10^−7). Then, 50 μl of each dilution was plated on SAB agar (Sigma) in triplicate. […] The colonies were counted, and the percentage killed was determined based on the reduction in the number of CFU/ml in the treated samples compared with the vehicle-treated, untreated controls.

CC[C@@H]([C@H](C)O)n1ncn(-c2ccc(N3CCN(c4ccc(OC[C@@H]5CO[C@@](Cn6cncn6)(c6ccc(F)cc6F)C5)cc4)CC3)cc2)c1=O [Posaconazole]
Time of kill (time taken to kill 2 logs) (A. fumigatus conidia; final concn 4 mg/liter = 16× MIC): 24 h

C[C@@H]1[C@H](O)[C@@H](C)/C=C/C=C/C=C/C=C/C=C/C=C/C=C/[C@H](O[C@@H]2O[C@H](C)[C@@H](O)[C@H](N)[C@@H]2O)C[C@@H]2O[C@](O)(C[C@@H](O)C[C@@H](O)[C@H](O)CC[C@@H](O)C[C@@H](O)CC(=O)O[C@H]1C)C[C@H](O)[C@H]2C(=O)O [Amphotericin B]
Time of kill (time taken to kill 3 logs) (C. auris; final concn 32 mg/liter = 16× MIC (amphotericin B)): 4 h | Fold change in antifungal MIC at passage 30 [1]: 4 | Fold change in antifungal MIC at passage 30 (C. albicans SC5314): 4 | Time of kill (time taken to kill 2 logs) (A. fumigatus conidia; final concn 2–8 mg/liter = 4–16× MIC): 48 h | Fold change in antifungal MIC at passage 30 (C. glabrata AM2007/0125): 1 | Fold change in antifungal MIC at passage 30 (C. auris DSMZ1092): 4

N=C(N)NCCC[C@H](NC(=O)[C@H](CCCNC(=N)N)NC(=O)[C@@H](N)CCCNC(=N)N)C(=O)O [RRR] (H-Arg-Arg-Arg-OH)
MIC (C. albicans NCTC 3179): >2,048 μM

N=C(N)NCCC[C@H](NC(=O)[C@H](CCCNC(=N)N)NC(=O)[C@H](CCCNC(=N)N)NC(=O)[C@H](CCCNC(=N)N)NC(=O)[C@H](CCCNC(=N)N)NC(=O)[C@H](CCCNC(=N)N)NC(=O)[C@@H](N)CCCNC(=N)N)C(=O)O [RRRRRRR]
MIC (C. albicans NCTC 3179): >2,048 μM

N=C(N)NCCC[C@H](NC(=O)[C@H](CCCNC(=N)N)NC(=O)[C@H](CCCNC(=N)N)NC(=O)[C@H](CCCNC(=N)N)NC(=O)[C@H](CCCNC(=N)N)NC(=O)[C@H](CCCNC(=N)N)NC(=O)[C@H](CCCNC(=N)N)NC(=O)[C@H](CCCNC(=N)N)NC(=O)[C@@H](N)CCCNC(=N)N)C(=O)O
MIC (C. albicans NCTC 3179): 2,048 μM

C[C@@H](c1ncncc1F)[C@](O)(Cn1cncn1)c1ccc(F)cc1F [Voriconazole]
Time of kill (time taken to kill 2 logs) (A. fumigatus conidia; final concn 2–8 mg/liter = 16× MIC): 48 h

N=C(N)NCCC[C@H](NC(=O)[C@H](CCCNC(=N)N)NC(=O)[C@H](CCCNC(=N)N)NC(=O)[C@H](CCCNC(=N)N)NC(=O)[C@@H](N)CCCNC(=N)N)C(=O)O [RRRRR] (H-RRRRR-OH)
MIC (C. albicans NCTC 3179): >2,048 μM

N=C(N)NCCC[C@H](NC(=O)[C@H](CCCNC(=N)N)NC(=O)[C@H](CCCNC(=N)N)NC(=O)[C@H](CCCNC(=N)N)NC(=O)[C@H](CCCNC(=N)N)NC(=O)[C@H](CCCNC(=N)N)NC(=O)[C@H](CCCNC(=N)N)NC(=O)[C@H](CCCNC(=N)N)NC(=O)[C@H](CCCNC(=N)N)NC(=O)[C@H](CCCNC(=N)N)NC(=O)[C@@H](N)CCCNC(=N)N)C(=O)O
MIC (C. albicans NCTC 3179): 8 µM (≈ 13.9 µg/mL)

human β-defensin 2 (GIGDPVTCLKSGAICHPVFCPRRYKQIGTCGLPGTKCCKKP; UniProt O15263 24-64, looked up) [endogenous human host defense peptide used as comparator in TEM]
MIC (1× MIC, final concentration used for TEM) (C. albicans AM2003-0182 [2]): 25 mg/L | Cell destruction (lysis) seen by TEM (C. albicans AM2003-0182 [3]): not observed

CC[C@H](C)C[C@H](C)CCCCCCCCC(=O)N[C@H]1C[C@@H](O)[C@@H](NCCN)NC(=O)[C@@H]2[C@@H](O)CCN2C(=O)[C@H]([C@H](O)CCN)NC(=O)[C@H]([C@H](O)[C@@H](O)c2ccc(O)cc2)NC(=O)[C@@H]2C[C@@H](O)CN2C(=O)[C@H]([C@@H](C)O)NC1=O [Caspofungin]
Time of kill (time taken to kill 3 logs) (C. auris; final concn 16 mg/liter = 16× MIC): 6–24 h | Fold change in antifungal MIC at passage 30 [1]: 8 | Fold change in antifungal MIC at passage 30 (C. albicans SC5314): 4 | Time of kill (time taken to kill 2 logs) (A. fumigatus conidia; final concn 2–32 mg/liter = 1–16× MIC): 48 h | Fold change in antifungal MIC at passage 30 (C. glabrata AM2007/0125): 1 | MIC (1× MIC, final concentration used for TEM) (C. albicans AM2003-0182 [2]): 0.5 mg/L | Time of kill (time taken to kill 3 logs) (C. albicans; final concn 1 mg/liter = 4× MIC): 4 h | Cell destruction (lysis) seen by TEM (C. albicans AM2003-0182 [3]): not observed | Fold change in antifungal MIC at passage 30 (C. auris DSMZ1092): 1

OC(Cn1cncn1)(Cn1cncn1)c1ccc(F)cc1F [Fluconazole]
Time of kill (time taken to kill 3 logs) (C. albicans; final concn 32 mg/liter = 32× MIC): 6 h
